Our source for the Ki and kIAM' values is ChEMBL document CHEMBL1134477, “Combinatorial lead optimization of a neuropeptide FF antagonist” (J Med Chem, 2001).

Where a SMILES comes first, the peptide text is derived from it. The star is where a group is joined. Dansyl = CN(C)c1cccc2c(S(=O)(=O)*)cccc12; Desaminotyrosyl = O=C(CCc1ccc(O)cc1)*

Usually Ki stands for a measure of affinity in units of concentration, obtained from inhibition or displacement.

Experiment [1] addresses Neuropeptide FF receptor 2 (Rattus norvegicus, UniProt Q9EQD2). The experiment is described as follows: Binding affinity towards NPFF receptor was measured by the displacement of [125I]-YLFQPQRF-NH2. In general terms: In a radioligand displacement assay an active substance lowers the binding of a labelled ligand.
Experiment [2] can be described thus: K' value on the basis of IAM (immobilized artificial membrane) retention. Type of experiment: functional.

Chain of Neuropeptide FF receptor 2 (Q9EQD2 whole entry): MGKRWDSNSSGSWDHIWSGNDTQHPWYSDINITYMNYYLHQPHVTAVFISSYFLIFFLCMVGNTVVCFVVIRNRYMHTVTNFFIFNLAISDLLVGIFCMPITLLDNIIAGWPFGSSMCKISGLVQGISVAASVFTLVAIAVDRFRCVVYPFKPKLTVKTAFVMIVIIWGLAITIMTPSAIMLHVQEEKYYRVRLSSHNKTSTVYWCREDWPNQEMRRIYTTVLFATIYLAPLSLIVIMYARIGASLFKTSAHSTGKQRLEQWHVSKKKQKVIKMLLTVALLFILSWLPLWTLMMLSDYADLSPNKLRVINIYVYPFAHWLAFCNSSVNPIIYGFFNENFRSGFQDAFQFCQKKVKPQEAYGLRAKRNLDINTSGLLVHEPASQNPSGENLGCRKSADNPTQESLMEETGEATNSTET

As to `CN(C)c1cccc2c(S(=O)(=O)NCC(=O)N[C@@H](CO)C(=O)N[C@@H](CCCN=C(N)N)C(N)=O)cccc12` (Dansyl-Gly-Ser-Arg-NH2), the affinity in experiment [1], expressed as Ki, was 1.4 µM. In addition, the kIAM' in experiment [2] was found to be 8. On to `CC(C)C[C@H](NC(=O)[C@H](Cc1ccccc1)NC(=O)CCc1ccc(O)cc1)C(=O)N[C@@H](Cc1ccccc1)C(=O)N[C@@H](CCC(N)=O)C(=O)N1CCC[C@H]1C(=O)N[C@@H](CCC(N)=O)C(=O)N[C@@H](CCCNC(=N)N)C(N)=O` (Desaminotyrosyl-FLFQPQR-NH2), for which the affinity in experiment [1], expressed as Ki, was 0.84 µM.

In experiment [1], `CN(C)c1cccc2c(S(=O)(=O)N3CCC[C@H]3C(=O)N[C@@H](CCC(N)=O)C(=O)N[C@@H](CCCNC(=N)N)C(N)=O)cccc12` [DANSYLPQRAMIDE] had a Ki of 13.6 µM. In experiment [2], this molecule returned a kIAM' of 5.9.
